Like-named read-outs stand apart in the source and are kept apart here.
Target: T1, STAT6 (Homo sapiens, UniProt P42226)
T1 construct: endogenous in cells; host or cells: MOLM-16, KU-812, SKNO1, MB231, L1236
T1 sequence (P42226 1-847): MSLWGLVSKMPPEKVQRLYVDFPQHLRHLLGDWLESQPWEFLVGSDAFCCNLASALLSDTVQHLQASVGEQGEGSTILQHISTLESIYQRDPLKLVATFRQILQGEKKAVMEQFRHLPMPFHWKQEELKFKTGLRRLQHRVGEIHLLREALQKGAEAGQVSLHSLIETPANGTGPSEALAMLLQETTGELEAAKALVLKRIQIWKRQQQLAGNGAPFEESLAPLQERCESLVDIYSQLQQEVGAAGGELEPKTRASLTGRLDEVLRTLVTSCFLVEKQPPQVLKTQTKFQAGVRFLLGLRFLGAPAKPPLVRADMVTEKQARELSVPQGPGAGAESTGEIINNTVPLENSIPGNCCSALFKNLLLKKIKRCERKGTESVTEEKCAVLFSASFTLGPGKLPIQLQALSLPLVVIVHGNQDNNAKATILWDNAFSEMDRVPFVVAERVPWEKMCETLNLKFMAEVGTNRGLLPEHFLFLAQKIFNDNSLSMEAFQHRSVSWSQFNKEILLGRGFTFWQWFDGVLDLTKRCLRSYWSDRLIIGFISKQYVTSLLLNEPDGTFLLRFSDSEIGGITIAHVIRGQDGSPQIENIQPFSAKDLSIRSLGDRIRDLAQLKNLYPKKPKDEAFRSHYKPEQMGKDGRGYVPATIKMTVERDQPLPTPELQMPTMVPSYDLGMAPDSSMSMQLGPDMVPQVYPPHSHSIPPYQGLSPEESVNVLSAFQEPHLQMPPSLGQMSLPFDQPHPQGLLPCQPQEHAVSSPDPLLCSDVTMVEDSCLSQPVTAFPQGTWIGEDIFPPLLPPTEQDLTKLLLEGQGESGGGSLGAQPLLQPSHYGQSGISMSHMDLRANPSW
Assay: Immunoblotting (Western blot) analysis of STAT6 degradation efficiency of degraders in treated cells
Format: cell-based
Procedure, shortened: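 About 1 million cells per point, grown in 10% FBS medium at 37 °C/5% CO2, were exposed to compound at the indicated concentrations and times, then lysed in RIPA buffer with protease and phosphatase inhibitors. Equal protein (20-40 μg) was resolved by SDS-PAGE, blotted to PVDF, and probed with anti-STAT5, anti-STAT6 and anti-GAPDH antibodies.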

[1] = MOLM-16 cells, class symbols, read-out: DC50 S6 MOLM-16
[2] = L1236 cells, read-out: DC50 S6 L1236

Compound | DC50 [1] | DC50 [2] | DC50 (MB231 cells, read-out: DC50 S6 MB231)
CC(C)(C)[C@H](NC(=O)c1cc2cc(C(F)(F)P(=O)(O)O)ccc2s1)C(=O)N1Cc2cc(OCC(=O)NCCC#Cc3cccc4c3C(=O)N(C3CCC(=O)NC3=O)C4=O)ccc2C[C@H]1C(=O)N1CCO[C@H](c2ccccc2)C1 (stereo partly drawn) [Compound 537, ((2-(((2S)-1-((3S)-7-(2-((4-(2-(2,6-dioxopiperidin-3-yl)-1,3-dioxoisoindolin-4-yl)but-3-yn-1-yl)amino)-2-oxoethoxy)-3-((R)-2-phenylmorpholine-4-carbonyl)-3,4-dihydroisoquinolin-2(1H)-yl)-3,3-dimethyl-1-oxobutan-2-yl)carbamoyl)benzo[b]thiophen-5-yl)difluoromethyl)phosphonic acid] | > 10 µM | – | –
O=C1CCC(N2Cc3c(C#CCCCCCC(=O)N4CC[C@H]5CC[C@@H](C(=O)N6CC[C@@H](c7ccccc7)C6)N5C(=O)[C@@H](NC(=O)c5cc6cc(C(F)(F)P(=O)(O)O)ccc6s5)C4)cccc3C2=O)C(=O)N1 (stereo partly drawn) [Compound 563, ((2-(((5S,8S,10aR)-3-(8-(2-(2,6-dioxopiperidin-3-yl)-1-oxoisoindolin-4-yl)oct-7-ynoyl)-6-oxo-8-((S)-3-phenylpyrrolidine-1-carbonyl)decahydropyrrolo[1,2-a][1,5]diazocin-5-yl)carbamoyl)benzo[b]thiophen-5-yl)difluoromethyl)phosphonic acid] | > 10 µM | > 10 µM | –
CC(C)(C)[C@H](NC(=O)c1cc2cc(C(F)(F)P(=O)(O)O)ccc2s1)C(=O)N1Cc2cc(OCC(=O)NCCCCCCCCC#Cc3ccc4c(c3)C(=O)N(C3CCC(=O)NC3=O)C4=O)ccc2C[C@H]1C(=O)N1CCC[C@H](c2ccccc2)C1 (stereo partly drawn) [Compound 560, ((2-(((2S)-1-((3S)-7-(2-((10-(2-(2,6-dioxopiperidin-3-yl)-1,3-dioxoisoindolin-5-yl)dec-9-yn-1-yl)amino)-2-oxoethoxy)-3-((R)-3-phenylpiperidine-1-carbonyl)-3,4-dihydroisoquinolin-2(1H)-yl)-3,3-dimethyl-1-oxobutan-2-yl)carbamoyl)benzo[b]thiophen-5-yl)difluoromethyl)phosphonic acid] | > 10 µM | – | –
Cc1ncsc1-c1ccc([C@H](C)NC(=O)[C@@H]2C[C@@H](O)CN2C(=O)[C@@H](NC(=O)CCCCCCCCCNC(=O)COc2ccc3c(c2)CN(C(=O)[C@@H](NC(=O)c2cc4cc(C(F)(F)P(=O)(O)O)ccc4s2)C(C)(C)C)[C@H](C(=O)N2CCC[C@H](c4ccccc4)C2)C3)C(C)(C)C)cc1 [Compound 478, (difluoro(2-(((S)-1-((S)-7-(2-((10-(((S)-1-((2S,4R)-4-hydroxy-2-(((S)-1-(4-(4-methylthiazol-5-yl)phenyl)ethyl)carbamoyl)pyrrolidin-1-yl)-3,3-dimethyl-1-oxobutan-2-yl)amino)-10-oxodecyl)amino)-2-oxoethoxy)-3-((R)-3-phenylpiperidine-1-carbonyl)-3,4-dihydroisoquinolin-2(1H)-yl)-3,3-dimethyl-1-oxobutan-2-yl)carbamoyl)benzo[b]thiophen-5-yl)methyl)phosphonic acid] | > 10 µM | – | –
CC(C)(C)[C@H](NC(=O)c1cc2cc(C(F)(F)P(=O)(O)O)ccc2s1)C(=O)N1CCN(C(=O)CC(=O)NCCCCCCCCC#Cc2ccc3c(c2)C(=O)N(C2CCC(=O)NC2=O)C3=O)C[C@H]1C(=O)N1CCC[C@H](c2ccccc2)C1 (stereo partly drawn) [Compound 532, ((2-(((2S)-1-((2S)-4-(3-((10-(2-(2,6-dioxopiperidin-3-yl)-1,3-dioxoisoindolin-5-yl)dec-9-yn-1-yl)amino)-3-oxopropanoyl)-2-((R)-3-phenylpiperidine-1-carbonyl)piperazin-1-yl)-3,3-dimethyl-1-oxobutan-2-yl)carbamoyl)benzo[b]thiophen-5-yl)difluoromethyl)phosphonic acid] | > 10 µM | – | –
CC(C)(C)[C@H](NC(=O)c1cc2cc(C(F)(F)P(=O)(O)O)ccc2s1)C(=O)N1C[C@@H](OCC(=O)NCC#Cc2ccc3c(c2)C(=O)N(C2CCC(=O)NC2=O)C3=O)C[C@H]1C(=O)N1CCC[C@H](c2ccccc2)C1 (stereo partly drawn) [Compound 494, ((2-(((2S)-1-((2S,4S)-4-(2-((3-(2-(2,6-dioxopiperidin-3-yl)-1,3-dioxoisoindolin-5-yl)prop-2-yn-1-yl)amino)-2-oxoethoxy)-2-((R)-3-phenylpiperidine-1-carbonyl)pyrrolidin-1-yl)-3,3-dimethyl-1-oxobutan-2-yl)carbamoyl)benzo[b]thiophen-5-yl)difluoromethyl)phosphonic acid] | > 10 µM | – | –
Cc1ncsc1-c1ccc(CNC(=O)[C@@H]2C[C@@H](O)CN2C(=O)[C@@H](NC(=O)CCCCNC(=O)CO[C@@H]2C[C@@H](C(=O)N(C)c3ccc(Br)cc3)N(C(=O)[C@@H](NC(=O)c3cc4cc(C(F)(F)P(=O)(O)O)ccc4s3)C(C)(C)C)C2)C(C)(C)C)cc1 [Compound 416, ((2-(((S)-1-((2S,4R)-2-((4-bromophenyl)(methyl)carbamoyl)-4-(2-((5-(((S)-1-((2S,4R)-4-hydroxy-2-((4-(4-methylthiazol-5-yl)benzyl)carbamoyl)pyrrolidin-1-yl)-3,3-dimethyl-1-oxobutan-2-yl)amino)-5-oxopentyl)amino)-2-oxoethoxy)pyrrolidin-1-yl)-3,3-dimethyl-1-oxobutan-2-yl)carbamoyl)benzo[b]thiophen-5-yl)difluoromethyl)phosphonic acid] | – | > 10 µM | > 10 µM
CC(C)(C)[C@H](NC(=O)c1cc2cc(C(F)(F)P(=O)(O)O)ccc2s1)C(=O)N1CCN(C(=O)CC(=O)NCCCCCCCCC#Cc2ccc3c(c2)C(=O)N(C2CCC(=O)NC2=O)C3=O)C[C@H]1C(=O)N1CCO[C@H](c2ccccc2)C1 (stereo partly drawn) [Compound 518, ((2-(((2S)-1-((2S)-4-(3-((10-(2-(2,6-dioxopiperidin-3-yl)-1,3-dioxoisoindolin-5-yl)dec-9-yn-1-yl)amino)-3-oxopropanoyl)-2-((R)-2-phenylmorpholine-4-carbonyl)piperazin-1-yl)-3,3-dimethyl-1-oxobutan-2-yl)carbamoyl)benzo[b]thiophen-5-yl)difluoromethyl)phosphonic acid] | > 10 µM | – | –
Cc1ncsc1-c1ccc([C@H](C)NC(=O)[C@@H]2C[C@@H](O)CN2C(=O)[C@@H](NC(=O)CCCCCCCCNC(=O)CO[C@H]2C[C@@H](C(=O)N3CCC[C@H](c4ccccc4)C3)N(C(=O)[C@@H](NC(=O)c3cc4cc(C(F)(F)P(=O)(O)O)ccc4s3)C(C)(C)C)C2)C(C)(C)C)cc1 [Compound 441, (difluoro(2-(((S)-1-((2S,4S)-4-(2-((9-(((S)-1-((2S,4R)-4-hydroxy-2-(((S)-1-(4-(4-methylthiazol-5-yl)phenyl)ethyl)carbamoyl)pyrrolidin-1-yl)-3,3-dimethyl-1-oxobutan-2-yl)amino)-9-oxononyl)amino)-2-oxoethoxy)-2-((R)-3-phenylpiperidine-1-carbonyl)pyrrolidin-1-yl)-3,3-dimethyl-1-oxobutan-2-yl)carbamoyl)benzo[b]thiophen-5-yl)methyl)phosphonic acid] | > 10 µM | > 10 µM | –
CC(C)(C)[C@H](NC(=O)c1cc2cc(C(F)(F)P(=O)(O)O)ccc2s1)C(=O)N1CCN(C(=O)CC(=O)NCCCCCCCCCC#Cc2cccc3c2C(=O)N(C2CCC(=O)NC2=O)C3=O)C[C@H]1C(=O)N1CCC[C@H](c2ccccc2)C1 (stereo partly drawn) [Compound 533, ((2-(((2S)-1-((2S)-4-(3-((11-(2-(2,6-dioxopiperidin-3-yl)-1,3-dioxoisoindolin-4-yl)undec-10-yn-1-yl)amino)-3-oxopropanoyl)-2-((R)-3-phenylpiperidine-1-carbonyl)piperazin-1-yl)-3,3-dimethyl-1-oxobutan-2-yl)carbamoyl)benzo[b]thiophen-5-yl)difluoromethyl)phosphonic acid] | > 10 µM | – | –
CC(C)(C)[C@H](NC(=O)C1=Cc2cc(C(F)(F)P(=O)(O)O)ccc2C1)C(=O)N1CSN(C(=O)CC(=O)NCC#Cc2cccc3c2C(=O)N(C2CCC(=O)NC2=O)C3=O)C[C@H]1C(=O)N1CCC[C@H](c2ccccc2)C1 (stereo partly drawn) [Compound 521, ((2-(((2S)-1-((4S)-2-(3-((3-(2-(2,6-dioxopiperidin-3-yl)-1,3-dioxoisoindolin-4-yl)prop-2-yn-1-yl)amino)-3-oxopropanoyl)-4-((R)-3-phenylpiperidine-1-carbonyl)-1,2,5-thiadiazinan-5-yl)-3,3-dimethyl-1-oxobutan-2-yl)carbamoyl)-1H-inden-5-yl)difluoromethyl)phosphonic acid] | > 10 µM | – | –
